# Experimental data: ChEMBL document CHEMBL3785076, “Disposition of valproic acid in man” (Eur J Clin Pharmacol, 1977)
# Legend:
# [1] = Plasma concentration in healthy human subjects (6 subjects) at 600 mg, po administered as single enteric-coated compound dose measured after 10 hrs by GLC method; type: ADME, organism-based
# [2] = test system: Homo sapiens; assay: Apparent volume of distribution in healthy human subjects (6 subjects) at 600 mg, po administered as single enteric-coated compound dose measured by GLC method; type: ADME, organism-based; conditions: in vivo
# [3] = Plasma concentration in healthy human subjects (6 subjects) at 600 mg, po administered as single enteric-coated compound dose measured after 6 hrs by GLC method; type: ADME, organism-based
# [4] = test system: Homo sapiens; assay: Drug lag time in healthy human subjects (6 subjects) at 600 mg, po administered as single enteric-coated compound dose measured by GLC method; type: ADME, organism-based; conditions: in vivo
# [5] = Drug concentration in saliva of healthy human subjects (6 subjects) at 600 mg, po administered as single enteric-coated compound; type: ADME, organism-based; conditions: in vivo
# [6] = Steady state plasma concentration before morning dose in healthy human subjects (6 subjects) at 1200 mg, po for 12 days administered as enteric-coated compound dose by GLC method; type: ADME, organism-based; conditions: read-out: Cpss
# [7] = Total plasma clearance in healthy human subjects (6 subjects) at 600 mg, po administered as single enteric-coated compound dose measured by GLC method; type: ADME, organism-based
# [8] = Ratio of urinary excretion of valproic acid to urinary excretion of VPA-conjugates in healthy human subjects (6 subjects) at 1200 mg, po for 12 days administered as enteric-coated compound dose measured during 24 hrs relative to total drug excretion; type: ADME, organism-based, Urine; conditions: in vivo
# [9] = Plasma concentration in healthy human subjects (6 subjects) at 600 mg, po administered as single enteric-coated compound dose measured after 24 hrs by GLC method; type: ADME, organism-based
# [10] = Plasma protein binding in healthy human subjects (6 subjects) measured under steady state conditions by equilibrium dialysis method; type: ADME, cell-free; conditions: read-out: PPB (converted)
# [11] = Plasma concentration in healthy human subjects (6 subjects) at 600 mg, po administered as single enteric-coated compound dose measured after 3 hrs by GLC method; type: ADME, organism-based
# [12] = Plasma concentration in healthy human subjects (6 subjects) at 600 mg, po administered as single enteric-coated compound dose measured after 48 hrs by GLC method; type: ADME, organism-based
# [13] = AUC in healthy human subjects (6 subjects) at 600 mg, po administered as single enteric-coated compound dose measured by GLC method; type: ADME, organism-based; conditions: in vivo
# [14] = Plasma concentration in healthy human subjects (6 subjects) at 600 mg, po administered as single enteric-coated compound dose measured after 4 hrs by GLC method; type: ADME, organism-based
# [15] = Plasma concentration in healthy human subjects (6 subjects) at 600 mg, po administered as single enteric-coated compound dose measured after 2 hrs by GLC method; type: ADME, organism-based
# [16] = Half life in human measured over 24 hrs; type: ADME, organism-based; conditions: in vivo
# [17] = Ratio of urinary excretion of valproic acid to urinary excretion of VPA-conjugates in healthy human subjects (6 subjects) at 600 mg, po administered as single enteric-coated compound; type: ADME, organism-based, Urine; conditions: in vivo
# [18] = Elimination rate constant during beta-phase in healthy human subjects (6 subjects) at 600 mg, po administered as single enteric-coated compound dose measured by GLC method; type: ADME, organism-based; conditions: in vivo
# [19] = Terminal half life in healthy human subjects (6 subjects) at 600 mg, po administered as single enteric-coated compound dose measured by GLC method; type: ADME, organism-based; conditions: in vivo, read-out: beta t1/2 (converted)
# [20] = Plasma concentration in healthy human subjects (6 subjects) at 600 mg, po administered as single enteric-coated compound dose measured after 72 hrs by GLC method; type: ADME, organism-based
# [21] = Plasma concentration in healthy human subjects (6 subjects) at 600 mg, po administered as single enteric-coated compound dose measured after 30 hrs by GLC method; type: ADME, organism-based
# [22] = Tmax in healthy human subjects (6 subjects) at 600 mg, po administered as single enteric-coated compound dose measured by GLC method; type: ADME, organism-based; conditions: in vivo
# [23] = Plasma protein binding in healthy human subjects (6 subjects) assessed as unbound fraction level measured under steady state conditions by equilibrium dialysis method; type: ADME, cell-free
# [24] = test system: Homo sapiens; assay: Mean steady state plasma concentration in healthy human subjects (6 subjects) at 1200 mg, po for 12 days administered as enteric-coated compound dose by GLC method; type: ADME, organism-based; conditions: in vivo, 288 h
# [25] = Half life at steady state in healthy human subjects (6 subjects) at 1200 mg, po for 12 days administered as enteric-coated compound dose by GLC method; type: ADME, organism-based; conditions: in vivo, read-out: t1/2ss (converted)
# [26] = Drug concentration in saliva of healthy human subjects (6 subjects) at 1200 mg, po for 12 days administered as enteric-coated compound dose measured under steady state conditions by GLC method relative to plasma drug level; type: ADME, organism-based; conditions: in vivo, 288 h
structure (smiles),measurement,setting,value
CCCC(CCC)C(=O)[O-].[Na+] [VALPROATE SODIUM],concentration at 10 h,[1],38400 ng/mL
same,Vbeta,[2],0.15 L/kg
same,concentration at 6 h,[3],53200 ng/mL
same,Tlag,[4],1.3 h
same,Drug uptake,[5],< 0.5 µg/mL
same,concentration at 288 h,[6],75300 ng/mL
same,CL/F,[7],0.107 mL/min/kg
same,Ratio,[8],1.127
same,concentration at 24 h,[9],17600 ng/mL
same,fraction unbound,[10],0.067
same,concentration at 3 h,[11],42800 ng/mL
same,concentration at 48 h,[12],6500 ng/mL
same,AUC,[13],1210 µg·h/mL
same,concentration at 4 h,[14],58100 ng/mL
same,concentration at 2 h,[15],10300 ng/mL
same,half-life,[16],8 h
same,Ratio,[17],0.158
same,k el,[18],1.25e-05 s⁻¹
same,half-life,[19],15.9 h
same,concentration at 72 h,[20],2500 ng/mL
same,concentration at 30 h,[21],14000 ng/mL
same,Tmax,[22],3.7 h
same,fraction unbound,[23],0.067
same,Cpss,[24],81.3 µg/mL
same,half-life,[25],17.3 h
same,Drug uptake,[26],1.3%
